{
  "source": "patent US6525054B1",
  "about": "“Cyanoiminoquinoxaline derivatives” (Shionogi & Co., Ltd., priority 1998, dated 2003)",
  "key": {"cerebral infarction": {"test_system": "cerebral infarction", "assay": "Inhibition effect on cerebral infarction (MCA occlusion/reperfusion)", "assay_type": "in vivo, Slc-Wistar rat", "conditions": "24 hr of reperfusion", "from_the_text": "As to compound 2(2), the inhibition effect on cerebral infarction was examined. […] Briefly the animals were anesthetized with halothane (FLUOTHANE, Takeda Chemical Industries Ltd.). After median incision of the neck skin, the right external carotid artery (ECA) was carefully dissected. A coated nylon thread (#4-0, 17.5 mm, Nitcho Kogyo Co. Ltd.) was inserted from the lumen of the ECA to the right internal carotid artery to occlude the origin of the right middle cerebral artery. After surgery, anesthesia was immediately discontinued. […] After 1 hr of MCA occlusion, the thread was removed to allow reperfusion under halothane anesthesia. Body temperature was maintained at 37° C. with a heating pad during ischemic and reperfusion surgery.\nThe test compound was administered from 15 min after reperfusion for 1 hr by continuous infusion via a catheter (Clay Adams; PE-20) inserted into the femoral vein in a volume of 4 ml/kg/hr.\nAfter 24 hr of reperfusion following 1 hr of MCA occlusion, rat was perfused with physiological saline containing heparin under pentobarbital anesthesia and the brain were removed after decapitation. The brain was cut into 12 coronal sections at 1 mm intervals using tissue chopper (McLWAIN) and immersed in saline containing 2% 2,3,5-triphenyltetrazolium-Cl (Wako Pure Chemical Industries, Ltd.) for 15 min. The stained brain sections were fixed by 10% formalin neutral buffered solution and infarct areas were quantified by an image analyzer system (OPTIMAS, Ver6.0) following scanning (Scantouch210, Nikon)."}, "[1]": {"biological_target": "T1, glycine-binding site of NMDA receptor complex (Rattus norvegicus, UniProt P35439)", "T1 construct": "from tissue; host or cells: rat cerebral cortex membrane fraction (Triton X-100 treated)", "assay": "Receptor affinity: [3H]glycine binding to rat cerebral cortex membrane fraction", "set-up": "species or system Slc-Wistar rat", "conditions": "100 nM [3H]glycine, 0° C. 10 min", "method": "(§1) As to 2-cyanoimino-1,4-dihydro-7-(1,4-dihydro-4-oxo-1-pyridyl)-6-nitro-3-quinoxaline monosodium salt (hereinafter referred to as compound 2(2)) obtained in Example 2(2), the affinity for the AMPA receptor and glycine-binding site of the NMDA receptor was determined as follows.\nCerebral cortex of Slc-Wistar rat (body weight: 250˜300 g) was homogenized with 20 times volume of 5 mM Tris-acetate buffer (pH 7.4) containing 1 mM EGTA, 0.1 mM PMSF and 0.01% bacitracin […] and re-suspended (×4 times). The resultant suspension was restored at −80° C. until use. The froze suspension was thawed at room temperature and incubated at 2° C. in 0.08% triton X-100 solution for 10 min, then the mixture was washed 2 times and suspended into 50 mM Tris-acetate buffer (pH 7.4), to give a membrane fraction. The membrane fraction was incubated with 100 nM [^3H]glycine and a test compound of various concentrations at 0° C. for 10 min. The mixture was diluted and collected by filtration with Whatman GF/C paper to terminate the reaction, then the radioactivity of ^3H remained on the filter was determined with a liquid scintillation counter. The non-specific binding was determined using 1 mM non-radioactive glycine to calculate the IC50 value."}, "kidney": {"test_system": "kidney", "assay": "Nephrotoxicity", "assay_type": "in vivo", "conditions": "100 mg/kg i.v. bolus, SD rat, 24 hr later", "method": "Compound 2(2) was intravenously administered by a bolus of 100 mg/kg to SD rat (9-10 weeks), which was killed 24 hr later. The both-side kidneys were immediately extracted from the rat. After measuring the weight, one kidney was embedded in paraffin to give a tissue preparation. The other kidney was homogenized, then the extract was subjected to liquid chromatography to determine the concentration of compound 2(2)."}, "AMPA receptor": {"biological_target": "AMPA receptor", "assay": "Receptor affinity: [3H]AMPA binding to rat cerebral cortex membrane fraction", "set-up": "species or system Slc-Wistar rat", "conditions": "30 nM [3H]AMPA, 0° C. 30 min", "method": "as §1\nCerebral cortex of Slc-Wistar rat (body weight: 250˜300 g) was homogenized with 10 times volume of 30 mM Tris-acetate buffer (pH 7.1) containing 2.5 mM CaCl2, then the mixture was centrifugalized (30,000×g, 15 min) and re-suspended (×3 times). The resultant suspension was restored at −80° C. until use. The froze suspension was thawed at room temperature and suspended into 30 mM Tris-acetate buffer (pH 7.1) containing 2.5 mM CaCl2 and 100 mM KSCN, to give a membrane fraction. The membrane fraction was incubated with 30 nM [^3H]AMPA and a test compound of various concentrations at 0° C. for 30 min. The mixture was diluted and collected by filtration with Whatman GF/C filter to terminate the reaction, then the radioactivity of ^3H remained on the filter was determined with a liquid scintillation counter. The non-specific binding was determined using 1 mM non-radioactive glutamate to calculate the IC50 value."}, "AMPA-induced seizure": {"test_system": "AMPA-induced seizure", "assay": "Anticonvulsant effect on AMPA-induced seizure", "assay_type": "in vivo, Slc-ddY mouse", "conditions": "iv; mouse, i.v. 1 min before AMPA 2 nmol/5 μL i.c.v., observed 15 min, Probit method", "method": "The anticonvulsant effect of compound 2(2) on AMPA-induced seizure was determined. According to the method described in J. T. Haley and W. G. McCormich, Br. J. Pharmacol. 12, 12-15(1957), AMPA 2 nmol/5 μL was intracerebroventricular administered to the cerebral ventricle of Slc-ddY mouse (4-5 weeks, male). The test compound, in a volume of 0.1 mL /10 g, was intravenously administered 1 min before the AMPA administration. The convulsion was examined by observing and checking, for 15 min from the AMPA administration, the reveal of jumping, wild-running, […] convulsion and tonic convulsion, then the ED50 value was calculated by Probit method."}},
  "note": "Where a name gives a salt, the structure may show the parent alone.",
  "data": [
    {"smiles": "N#CN=c1[nH]c2cc(-n3ccc(=O)cc3)c([N+](=O)[O-])cc2[nH]c1=O", "note": "[compound 2(2), 2-cyanoimino-1,4-dihydro-7-(1,4-dihydro-4-oxo-1-pyridyl)-6-nitro-3-quinoxaline monosodium salt]", "values": [
      {"measurement": "Infarct area at cerebral cortex (% of saline, mean ± standard error)", "setting": "cerebral infarction; 0.3 mg/kg/h i.v. infusion for 1 hr from 15 min after reperfusion", "result": "79.55 ± 13.99 % of saline"},
      {"measurement": "Infarct area at cerebral cortex (% of saline, mean ± standard error)", "setting": "cerebral infarction; 1 mg/kg/h i.v. infusion for 1 hr from 15 min after reperfusion", "result": "55.99 ± 11.77 % of saline"},
      {"measurement": "Infarct area at cerebral cortex (% of saline, mean ± standard error)", "setting": "cerebral infarction; 3 mg/kg/h i.v. infusion for 1 hr from 15 min after reperfusion", "result": "50.34 ± 10.14 % of saline"},
      {"measurement": "Infarct area at cerebral cortex (% of saline, mean ± standard error)", "setting": "cerebral infarction; 10 mg/kg/h i.v. infusion for 1 hr from 15 min after reperfusion", "result": "46.71 ± 15.24 % of saline"},
      {"measurement": "IC50", "setting": "[1]", "result": 7.5, "unit": "µM"},
      {"measurement": "Kidney tissue pathology", "setting": "kidney", "result": "no pathological unusual"},
      {"measurement": "Weight of the kidney compared to the vehicle group", "setting": "kidney", "result": "has not changed"},
      {"measurement": "Concentration of compound in the kidney (liquid chromatography)", "setting": "kidney; kidney homogenate", "result": "not detected"},
      {"measurement": "IC50", "setting": "AMPA receptor", "result": 0.034, "unit": "µM"},
      {"measurement": "ED50", "setting": "AMPA-induced seizure", "result": 6.9, "unit": "mg/kg"}
    ]}
  ]
}
